Test results from PubChem BioAssay AID1963862 (Molecular Pharmacology Branch, DTP, NCI, 2024).

Test system: KRAS patient-derived spheroids with HUVEC/MSC, viability
Test: Anticancer human tumor 941728-121-R-J1-PDC patient-derived lung adenocarcinoma cell line growth inhibition [KRAS2]
Settings: for IC50: curve of first compound; for viability, T/C: stronger effect = lower value; active = viability on the fitted dose curve at most 10% of control; inactive = the rest
Method in brief: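 Combination screen of spheroid viability in tumor-cell co-cultures with endothelial (HUVEC) and mesenchymal stem cell stroma. Each agent was tested in half-log dilutions, topping at clinical Cmax or at 10 microM without a known Cmax.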

[1] = second compound 0.1 µM, first compound 0.0316 µM
[2] = second compound 0.1 µM, first compound 0.1 µM
[3] = second compound 0.316 µM, first compound 0.0316 µM
[4] = second compound 0.316 µM, first compound 0.1 µM
[5] = second compound 1 µM, first compound 0.0316 µM
[6] = second compound 1 µM, first compound 0.1 µM
[7] = second compound 3.16 µM, first compound 0.0316 µM
[8] = second compound 3.16 µM, first compound 0.1 µM
[9] = second compound 10 µM, first compound 0.0316 µM
[10] = second compound 10 µM, first compound 0.1 µM
[11] = second compound 0.1 µM, first compound 0.000316 µM
[12] = second compound 0.1 µM, first compound 0.001 µM
[13] = second compound 0.1 µM, first compound 0.00316 µM
[14] = second compound 0.1 µM, first compound 0.01 µM
[15] = second compound 0.316 µM, first compound 0.000316 µM
[16] = second compound 0.316 µM, first compound 0.001 µM
[17] = second compound 0.316 µM, first compound 0.00316 µM
[18] = second compound 0.316 µM, first compound 0.01 µM
[19] = second compound 1 µM, first compound 0.000316 µM
[20] = second compound 1 µM, first compound 0.001 µM
[21] = second compound 1 µM, first compound 0.00316 µM
[22] = second compound 1 µM, first compound 0.01 µM
[23] = second compound 3.16 µM, first compound 0.000316 µM
[24] = second compound 3.16 µM, first compound 0.001 µM
[25] = second compound 3.16 µM, first compound 0.00316 µM
[26] = second compound 3.16 µM, first compound 0.01 µM
[27] = second compound 10 µM, first compound 0.000316 µM
[28] = second compound 10 µM, first compound 0.001 µM
[29] = second compound 10 µM, first compound 0.00316 µM
[30] = second compound 10 µM, first compound 0.01 µM
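Note: spheroids exposed to agents for seven days before readout.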

CCNC(=O)CC1N=C(c2ccc(Cl)cc2)c2cc(OC)ccc2-n2c(C)nnc21 (stereo not given) + CNCc1ccccc1-c1csc(C(C)Nc2nc(C)nc3cc(OC)c(OC)cc23)c1
active: viability, T/C [7] 1.35% | viability, T/C [8] 2.8% | viability, T/C (second compound 3.16 µM, first compound 0.316 µM) 0.83% | viability, T/C (second compound 3.16 µM, first compound 1 µM) 1.53% | viability, T/C (second compound 3.16 µM, first compound 3.16 µM) 1.46% | viability, T/C (second compound 3.16 µM, first compound 10 µM) 1.72% | viability, T/C [9] 0.51% | viability, T/C [10] 0.89% | viability, T/C (second compound 10 µM, first compound 0.316 µM) 0.25% | viability, T/C (second compound 10 µM, first compound 1 µM) 0.86% | viability, T/C (second compound 10 µM, first compound 3.16 µM) 0.86% | viability, T/C (second compound 10 µM, first compound 10 µM) 0.53%
< 31.6 nM: IC50 (second compound 0.316 µM) | IC50 (second compound 1 µM) | IC50 (second compound 3.16 µM) | IC50 (second compound 10 µM)
64.4 nM: IC50 (second compound 0.1 µM)
inactive: viability, T/C [1] 53.8% | viability, T/C [2] 48.9% | viability, T/C (second compound 0.1 µM, first compound 0.316 µM) 40.2% | viability, T/C (second compound 0.1 µM, first compound 1 µM) 35.5% | viability, T/C (second compound 0.1 µM, first compound 3.16 µM) 34.1% | viability, T/C (second compound 0.1 µM, first compound 10 µM) 28.6% | viability, T/C [3] 38.7% | viability, T/C [4] 37.1% | viability, T/C (second compound 0.316 µM, first compound 0.316 µM) 27.8% | viability, T/C (second compound 0.316 µM, first compound 1 µM) 25.8% | viability, T/C (second compound 0.316 µM, first compound 3.16 µM) 20.6% | viability, T/C (second compound 0.316 µM, first compound 10 µM) 19.8% | viability, T/C [5] 30% | viability, T/C [6] 27.2% | viability, T/C (second compound 1 µM, first compound 0.316 µM) 20.7% | viability, T/C (second compound 1 µM, first compound 1 µM) 17.4% | viability, T/C (second compound 1 µM, first compound 3.16 µM) 12.9% | viability, T/C (second compound 1 µM, first compound 10 µM) 11%

CC(=O)Nc1cccc(-n2c(=O)n(C3CC3)c(=O)c3c(Nc4ccc(I)cc4F)n(C)c(=O)c(C)c32)c1 + C=CC(=O)N1CCN(c2nc(=O)n(-c3c(C)ccnc3C(C)C)c3nc(-c4c(O)cccc4F)c(F)cc23)C(C)C1
< 0.1 nM: IC50 (second compound 0.1 µM) | IC50 (second compound 0.316 µM) | IC50 (second compound 1 µM) | IC50 (second compound 3.16 µM) | IC50 (second compound 10 µM)
inactive: viability, T/C (second compound 0.1 µM, first compound 0.0001 µM) 27.9% | viability, T/C [11] 26.2% | viability, T/C [12] 20.3% | viability, T/C [13] 21.6% | viability, T/C [14] 19.6% | viability, T/C [1] 19.3% | viability, T/C (second compound 0.316 µM, first compound 0.0001 µM) 26% | viability, T/C [15] 25.4% | viability, T/C [16] 24.1% | viability, T/C [17] 22.9% | viability, T/C [18] 20.2% | viability, T/C [3] 19.3% | viability, T/C (second compound 1 µM, first compound 0.0001 µM) 27.5% | viability, T/C [19] 28.3% | viability, T/C [20] 24.2% | viability, T/C [21] 23.6% | viability, T/C [22] 22.3% | viability, T/C [5] 20.4% | viability, T/C (second compound 3.16 µM, first compound 0.0001 µM) 27.3% | viability, T/C [23] 30.1% | viability, T/C [24] 26.9% | viability, T/C [25] 25.9% | viability, T/C [26] 28.6% | viability, T/C [7] 23.4% | viability, T/C (second compound 10 µM, first compound 0.0001 µM) 35.8% | viability, T/C [27] 31.4% | viability, T/C [28] 36.3% | viability, T/C [29] 36.2% | viability, T/C [30] 29.6% | viability, T/C [9] 29%

Cn1ncnc1[C@H]1c2n[nH]c(=O)c3cc(F)cc(c23)N[C@@H]1c1ccc(F)cc1 + C=CC(=O)N1CCN(c2nc(=O)n(-c3c(C)ccnc3C(C)C)c3nc(-c4c(O)cccc4F)c(F)cc23)C(C)C1
inactive: viability, T/C [11] 14.7% | viability, T/C [12] 15.4% | viability, T/C [13] 13.9% | viability, T/C [14] 13.6% | viability, T/C [1] 13.5% | viability, T/C [2] 13.9% | viability, T/C [15] 17.4% | viability, T/C [16] 14.9% | viability, T/C [17] 15.3% | viability, T/C [18] 14.8% | viability, T/C [3] 14.1% | viability, T/C [4] 14.1% | viability, T/C [19] 16% | viability, T/C [20] 15.5% | viability, T/C [21] 17.6% | viability, T/C [22] 15.9% | viability, T/C [5] 15.9% | viability, T/C [6] 15.2% | viability, T/C [23] 15.8% | viability, T/C [24] 18.3% | viability, T/C [25] 15.4% | viability, T/C [26] 17.4% | viability, T/C [7] 13.6% | viability, T/C [8] 14.9% | viability, T/C [27] 17.9% | viability, T/C [28] 20.1% | viability, T/C [29] 17.3% | viability, T/C [30] 17.3% | viability, T/C [9] 18.1% | viability, T/C [10] 16.7%
< 0.316 nM: IC50 (second compound 0.1 µM) | IC50 (second compound 0.316 µM) | IC50 (second compound 1 µM) | IC50 (second compound 3.16 µM) | IC50 (second compound 10 µM)
